For data set [1] the following is noted: cited from earlier work.
The next data set has as its target HRP. The data set can be described thus: Kinetic rate of HRP oxidation of TMB substrate on anti-peroxidase coated microwell plate, A (650 nm). Type of data set: biochemical, horseradish. To be noted: 0-1 OD at 650 nm, 0-15 minutes. Here is the method: A TMB solution was prepared having the following concentration of reagents: 3 mM TMB (Sigma, Cat #T-2885), 0.5% dimethylsulfoxide (DMSO; […] Various chemicals, used at 0.5M in the TMB solution, were compared against the betaine reagent in non-encapsulation solubilization methods. Glycine (Sigma, Cat #G8898), sarcosine (Sigma, Cat #131776), choline chloride (Sigma, Cat #C1909), L-carnitine (Sigma, Cat #C0158), 3-(1-pyridinio)-1-propanesulfonate (Sigma, Cat #82804), or the betaine N,N,N-trimethylglycine (Sigma, Cat #B2629) were all added to separate scintillation vials of TMB solution. A Nunc Maxisorb 96 microwell plate (Cat #439454) was coated with 100 μL of an 850 ng/mL solution of Rabbit Anti-Peroxidase (Accurate Chemical and Scientific Corporation, Cat #ACZ001021). The plate was then coated with 150 μL of StabilCoat (SurModics, Cat #SC01) for one hour. This was then aspirated and the plate was allowed to dry overnight in a desiccation chamber. Plates were then incubated with 100 μL of 3.125 ng/mL solution of HRP in Stabilzyme HRP Conjugate stabilizer (SurModics, SZ02) for one hour, washed three times, and 100 uL of TMB substrate was added to each well. […] To each TMB solution was added 1 mM hydroxy propyl beta-cyclodextrin (Wacker, 60082620), 3 mm hydroxy propyl beta-cyclodextrin (Wacker, 60082620), or 0.5M of the betaine N,N,N-trimethylglycine (Sigma, Cat #B2629). A Nunc Maxisorb 96 microwell plate (Cat #439454) was coated with 100 μL of an 850 ng/mL solution of Rabbit Anti-Peroxidase (Accurate Chemical and Scientific Corporation, Cat #ACZ001021). The plate was then coated with 150 μL of StabilCoat (SurModics, Cat #SC01) for one hour. This was then aspirated and the plate was allowed to dry overnight in a desiccation chamber. Plates were then incubated with 100 μL of 3.125 ng/mL solution of HRP in Stabilzyme HRP Conjugate stabilizer (SurModics, SZ02) for one hour, washed three times, and 100 uL of TMB substrate was added to each well.

Data set [2] is described as follows: Dye content of TMB solution, A (285 nm): amount of unrestricted benzidine rings in solution. Format: physicochemical. Here is the method:
A TMB solution was prepared having the following concentration of reagents: 3 mM TMB (Sigma, Cat #T-2885), 0.5% dimethylsulfoxide (DMSO; […] Various chemicals, used at 0.5M in the TMB solution, were compared against the betaine reagent in non-encapsulation solubilization methods. Glycine (Sigma, Cat #G8898), sarcosine (Sigma, Cat #131776), choline chloride (Sigma, Cat #C1909), L-carnitine (Sigma, Cat #C0158), 3-(1-pyridinio)-1-propanesulfonate (Sigma, Cat #82804), or the betaine N,N,N-trimethylglycine (Sigma, Cat #B2629) were all added to separate scintillation vials of TMB solution. Each TMB substrate and TMBW (available from SurModics, Inc) in an amount of 20 μL were added to individual aliquots of 980 μL of distilled water. […] Each TMB solution in an amount of 20 μL was added to individual aliquots of 980 μL of distilled water. […] To each TMB solution was added 1 mM hydroxy propyl beta-cyclodextrin (Wacker, 60082620), 3 mm hydroxy propyl beta-cyclodextrin (Wacker, 60082620), or 0.5M of the betaine N,N,N-trimethylglycine (Sigma, Cat #B2629). Each TMB substrate and TMBW (available from SurModics, Inc) in an amount of 20 μL of were added to individual aliquots of 980 μL of distilled water.

Where [3] appears, read: Example 1: additive at 0.5M in TMB solution (3 mM TMB, 1.25 mM hydroxypropyl beta-cyclodextrin, pH 3.5), TMBW as supplied.
Where [4] appears, read: Example 1: additive at 0.5M in TMB solution (3 mM TMB, 0.5% DMSO, 1.25 mM hydroxypropyl beta-cyclodextrin, 0.01% H2O2, pH 3.5), TMBW as supplied, 20 μL in 980 μL water.

In brackets after ≈: the same amount, converted by molar mass. Read-outs that look alike come from different tables or passages of the source.

Turning to `Nc1ccc(-c2ccc(N)cc2)cc1` [Benzidine, biphenyl-4,4′-diamine], in data set [1] (at 100° C., in the absence of the N,N,N-trimethylglycine solubilization reagent), the solubility in water is 0.94 g/100 mL.

For `C[N+](C)(C)CC(=O)O` [Betaine (N,N,N-trimethylglycine), N,N,N-trimethylglycine], the solubility in water entry in data set [1] (at 25° C.) was “up to 64 g/100 mL”. In addition, in data set [1] (at 25° C.), the “solubility in water (molar)” value was around 5500 mM. The “Kinetics (mAu/min)” value is on record as 71.917 mAu/min at HRP (setting [3]) and 71.739 mAu/min at HRP (Example 3: 0.5M additive in 3 mM TMB solution, pH 3.5). Also, the “Dye (A285)” value in data set [2] (setting [4]) came out at 0.974; in data set [2] (Example 2: 0.25M N,N,N-trimethylglycine, 3 mM TMB, 0.5% DMSO, pH 3.5) it was 0.35; in data set [2] (Example 2: 0.5M N,N,N-trimethylglycine, 3 mM TMB, 0.5% DMSO, pH 3.5), 0.535; in data set [2] (Example 2: 1M N,N,N-trimethylglycine, 3 mM TMB, 0.5% DMSO, pH 3.5), 0.85; in data set [2] (Example 3: 0.5M additive in 3 mM TMB, 0.5% DMSO, 0.01% H2O2, pH 3.5), 1.061.

Regarding “hydroxy propyl beta-cyclodextrin [Beta Cyclodextrin]”, the “Kinetics (mAu/min)” value on HRP (Example 3: 1 mM additive in 3 mM TMB solution, pH 3.5) is reported as 39.697 mAu/min; on HRP (Example 3: 3 mM additive in 3 mM TMB solution, pH 3.5), 49.775 mAu/min. Further, the “Dye (A285)” value is reported as 0.339 in data set [2] (Example 3: 1 mM additive in 3 mM TMB, 0.5% DMSO, 0.01% H2O2, pH 3.5) and 0.78 in data set [2] (Example 3: 3 mM additive in 3 mM TMB, 0.5% DMSO, 0.01% H2O2, pH 3.5).

As to `C[N+](C)(C)CCO.[Cl-]` [Choline Chloride, choline chloride], at HRP (setting [3]), the “Kinetics (mAu/min)” value is listed as 2.855 mAu/min. For the same compound, in data set [2] (setting [4]), the “Dye (A285)” value came to 1.074.

As for `CNCC(=O)O` [Sarcosine, sarcosine], the “Kinetics (mAu/min)” value on HRP (setting [3]) is 45.014 mAu/min. Also, the “Dye (A285)” value in data set [2] (setting [4]) was found to be 0.45.

For `NCC(=O)O` [Glycine], at HRP (setting [3]), the “Kinetics (mAu/min)” value was found to be 41.16 mAu/min. In addition, the “Dye (A285)” value in data set [2] (setting [4]) is given as 0.358.

For the compound `O=S(=O)([O-])CCC[n+]1ccccc1` [3-(1-Pyridinio)-1-propanesulfonate, 3-(1-pyridinio)-1-propanesulfonate], the “Kinetics (mAu/min)” value on HRP (setting [3]) is 49.732 mAu/min. Moreover, the “Dye (A285)” value in data set [2] (setting [4]) is given as 1.175.

For the compound `Cc1cc(-c2ccc(N)c(C)c2)ccc1N` [2-tolidine], in data set [1], the solubility in water was 1.3 g/L (≈ 6.12 mM).

On to `C[N+](C)(C)C[C@H](O)CC(=O)[O-]` (racemic) [DL-Carnitine, L-carnitine], for which the “Kinetics (mAu/min)” value at HRP (setting [3]) came out at 18.432 mAu/min. Besides, the “Dye (A285)” value in data set [2] (setting [4]) turned out to be 0.254.

The record behind these values is patent US9588123B2, “Compositions and methods for in vitro diagnostic tests including zwitterionic solubilization reagent” (SurModics IVD, Inc., priority 2014, dated 2017).
